Row | Compound | melting point [°C]
1 | Cc1nnc(-c2sc(N3CCN(Cc4ccc(C(F)(F)F)cc4)C3=O)nc2C)[nH]1 [Example 3, 1-(4-methyl-5-(5-methyl-4H-1,2,4-triazol-3-yl)thiazol-2-yl)-3-(4-(trifluoromethyl)benzyl)imidazolidin-2-one] | 273 to 274
2 | Cc1cc(-c2sc(N3CCN(CC4CC4)C3=O)nc2C)n[nH]1 [Example 6, 1-(cyclopropylmethyl)-3-(4-methyl-5-(5-methyl-1H-pyrazol-3-yl)thiazol-2-yl)imidazolidin-2-one] | 231 to 233
3 | Cc1nc(N2CCN(CC3CC3)C2=O)sc1-c1cc[nH]n1 [Example 7, 1-(cyclopropylmethyl)-3-(4-methyl-5-(1H-pyrazol-3-yl)thiazol-2-yl)imidazolidin-2-one] | 169 to 171
4 | Cc1nc(N2CCN(CCC3CC3)C2=O)sc1-c1cc[nH]n1 [Example 8, 1-(2-cyclopropylethyl)-3-(4-methyl-5-(1H-pyrazol-3-yl)thiazol-2-yl)imidazolidin-2-one] | 147 to 149
5 | Cc1nc(N2CCN(Cc3ccc(F)cc3)C2=O)sc1-c1cc[nH]n1 [Example 9, 1-(4-fluorobenzyl)-3-(4-methyl-5-(1H-pyrazol-3-yl)thiazol-2-yl)imidazolidin-2-one] | 239 to 242
6 | Cc1nc(N2CCN(Cc3ccccc3)C2=O)sc1C(N)=O [Example 10, 2-(3-benzyl-2-oxoimidazolidin-1-yl)-4-methylthiazole-5-carboxamide] | 217 to 218
7 | Cc1nnc(-c2sc(N3CCN(Cc4ccccc4)C3=O)nc2C)[nH]1 [Example 11, 1-benzyl-3-(4-methyl-5-(5-methyl-4H-1,2,4-triazol-3-yl)thiazol-2-yl)imidazolidin-2-one] | 284 to 287
8 | Cc1nc(N2CCN(CC3CC3)C2=O)sc1C(=O)NCc1cncc(F)c1 [Example 12, 2-(3-(cyclopropylmethyl)-2-oxoimidazolidin-1-yl)-N-((5-fluoropyridin-3-yl)methyl)-4-methylthiazole-5-carboxamide] | 144 to 145
9 | Cc1nc(-n2cnn(CCC3CC3)c2=O)sc1C(=O)NCc1cccnc1 [Example 13, 2-(1-(2-cyclopropylethyl)-5-oxo-1H-1,2,4-triazol-4(5H)-yl)-4-methyl-N-(pyridin-3-ylmethyl)thiazole-5-carboxamide] | 139 to 140
10 | Cc1nc(-n2cnn(CC3CC3)c2=O)sc1C(=O)NCc1ccncc1 [Example 14, 2-(1-(cyclopropylmethyl)-5-oxo-1H-1,2,4-triazol-4(5H)-yl)-4-methyl-N-(pyridin-4-ylmethyl)thiazole-5-carboxamide] | 169 to 170
11 | Cc1nc(-n2cnn(CC3CC3(F)F)c2=O)sc1C(=O)NCc1cccnc1 (stereo not drawn) [Example 15, 2-(1-((2,2-difluorocyclopropyl)methyl)-5-oxo-1H-1,2,4-triazol-4(5H)-yl)-4-methyl-N-(pyridin-3-ylmethyl)thiazole-5-carboxamide] | 160 to 161
12 | Cc1nc(N2CCN(CC3CC3(F)F)C2=O)sc1C(=O)NCc1cccnc1 (stereo not drawn) [Example 16, 2-(3-((2,2-difluorocyclopropyl)methyl)-2-oxoimidazolidin-1-yl)-4-methyl-N-(pyridin-3-ylmethyl)thiazole-5-carboxamide] | 169 to 171

Second part, the compound after the results:

Row | melting point [°C] | Compound
13 | 136 to 137 | Cc1nc(N2C[C@@H](C)N(Cc3ccc(C(F)(F)F)cc3)C2=O)sc1C(=O)NCc1ccccn1 [Example 2.20, (R)-4-methyl-2-(4-methyl-2-oxo-3-(4-(trifluoromethyl)benzyl)imidazolidin-1-yl)-N-(pyridin-2-ylmethyl)thiazole-5-carboxamide]
14 | 248 to 249 | Cc1nnc(-c2sc(N3CCN(Cc4ccc(F)cc4)C3=O)nc2C)[nH]1 [Example 3.1, 1-(4-fluorobenzyl)-3-[4-methyl-5-(5-methyl-4H-1,2,4-triazol-3-yl)thiazol-2-yl]imidazolidin-2-one]
15 | 163 to 164 | Cc1cc(-c2sc(N3CCN(Cc4cccc(C(F)(F)F)c4)C3=O)nc2C)n[nH]1 [Example 6.1, 1-(4-methyl-5-(5-methyl-1H-pyrazol-3-yl)thiazol-2-yl)-3-(3-(trifluoromethyl)benzyl)imidazolidin-2-one]
16 | 218 to 221 | Cc1cc(-c2sc(N3CCN(Cc4ccc(F)cc4)C3=O)nc2C)n[nH]1 [Example 6.2, 1-(4-fluorobenzyl)-3-(4-methyl-5-(5-methyl-1H-pyrazol-3-yl)thiazol-2-yl)imidazolidin-2-one]
17 | 167 to 169 | Cc1nc(N2CCN(CCCC(F)(F)F)C2=O)sc1C(=O)NCc1cccnc1 [Example 12.3, 4-methyl-2-(2-oxo-3-(4,4,4-trifluorobutyl)imidazolidin-1-yl)-N-(pyridin-3-ylmethyl)thiazole-5-carboxamide]
18 | 123 | Cc1cncc(CNC(=O)c2sc(N3CCN(CCCC(F)(F)F)C3=O)nc2C)n1 [Example 12.6, 4-methyl-N-((6-methylpyrazin-2-yl)methyl)-2-(2-oxo-3-(4,4,4-trifluorobutyl)imidazolidin-1-yl)thiazole-5-carboxamide]
19 | 178 to 181 | Cc1nc(N2CCN(CCCC(F)(F)F)C2=O)sc1C(=O)NCc1ccncc1 [Example 12.7, 4-methyl-2-(2-oxo-3-(4,4,4-trifluorobutyl)imidazolidin-1-yl)-N-(pyridin-4-ylmethyl)thiazole-5-carboxamide]
20 | 188 to 191 | Cc1nc(N2CCN(CC3CC3)C2=O)sc1C(=O)NCc1ccncn1 [Example 12.10, 2-(3-(cyclopropylmethyl)-2-oxoimidazolidin-1-yl)-4-methyl-N-(pyrimidin-4-ylmethyl)thiazole-5-carboxamide]
21 | 218 to 220 | Cc1nc(N2CCN(CC3CC3)C2=O)sc1C(=O)NCc1ncccn1 [Example 12.11, 2-(3-(cyclopropylmethyl)-2-oxoimidazolidin-1-yl)-4-methyl-N-(pyrimidin-2-ylmethyl)thiazole-5-carboxamide]
22 | 187 to 189 | Cc1nc(N2CCN(CC3CC3)C2=O)sc1C(=O)NCc1cccnn1 [Example 12.12, 2-(3-(cyclopropylmethyl)-2-oxoimidazolidin-1-yl)-4-methyl-N-(pyridazin-3-ylmethyl)thiazole-5-carboxamide]
23 | > 200 | Cc1nc(N2CCN(CC3CC3)C2=O)sc1C(=O)NCc1ccncc1 [Example 12.13, 2-(3-(cyclopropylmethyl)-2-oxoimidazolidin-1-yl)-4-methyl-N-(pyridin-4-ylmethyl)thiazole-5-carboxamide]
24 | 165 to 167 | Cc1ncc(CNC(=O)c2sc(N3CCN(CC4CC4)C3=O)nc2C)s1 [Example 12.14, 2-(3-(cyclopropylmethyl)-2-oxoimidazolidin-1-yl)-4-methyl-N-((2-methylthiazol-5-yl)methyl)thiazole-5-carboxamide]
25 | 172 to 174 | Cc1nc(N2CCN(CC3CC3)C2=O)sc1C(=O)NCc1ncco1 [Example 12.15, 2-(3-(cyclopropylmethyl)-2-oxoimidazolidin-1-yl)-4-methyl-N-(oxazol-2-ylmethyl)thiazole-5-carboxamide]
26 | 188 to 191 | Cc1nc(N2CCN(Cc3ccc(F)cc3)C2=O)sc1C(=O)NCc1cocn1 [Example 12.16, 2-(3-(4-fluorobenzyl)-2-oxoimidazolidin-1-yl)-4-methyl-N-(oxazol-4-ylmethyl)thiazole-5-carboxamide]
27 | 185 to 187 | Cc1nc(N2CCN(CC(C)C)C2=O)sc1C(=O)NCc1ccncc1 [Example 12.17, 2-(3-isobutyl-2-oxoimidazolidin-1-yl)-4-methyl-N-(pyridin-4-ylmethyl)thiazole-5-carboxamide]
28 | 139 to 142 | Cc1cncc(CNC(=O)c2sc(N3CCN(CC(C)C)C3=O)nc2C)n1 [Example 12.20, 2-(3-isobutyl-2-oxoimidazolidin-1-yl)-4-methyl-N-((6-methylpyrazin-2-yl)methyl)thiazole-5-carboxamide]
29 | 155 to 158 | Cc1nc(N2CCN(CC(C)C)C2=O)sc1C(=O)NCc1cnn(C)c1 [Example 12.21, 2-(3-isobutyl-2-oxoimidazolidin-1-yl)-4-methyl-N-((1-methyl-1H-pyrazol-4-yl)methyl)thiazole-5-carboxamide]
30 | 158 to 161 | Cc1nc(N2CCN(CC(C)C)C2=O)sc1C(=O)NCc1ccn(C)n1 [Example 12.22, 2-(3-isobutyl-2-oxoimidazolidin-1-yl)-4-methyl-N-((1-methyl-1H-pyrazol-3-yl)methyl)thiazole-5-carboxamide]
31 | 167 to 168 | Cc1nc(-n2cnn(CC3CC3)c2=O)sc1C(=O)NCc1cc[nH]n1 [Example 14.1, N-((1H-pyrazol-3-yl)methyl)-2-(1-(cyclopropylmethyl)-5-oxo-1H-1,2,4-triazol-4(5H)-yl)-4-methylthiazole-5-carboxamide]
32 | 157 to 158 | Cc1nc(-n2cnn(CC3CC3)c2=O)sc1C(=O)NCc1cocn1 [Example 14.2, 2-(1-(cyclopropylmethyl)-5-oxo-1H-1,2,4-triazol-4(5H)-yl)-4-methyl-N-(oxazol-4-ylmethyl)thiazole-5-carboxamide]
33 | 160 to 161 | Cc1nc(-n2cnn(CC3CC3)c2=O)sc1C(=O)NCc1ccccn1 [Example 14.3, 2-(1-(Cyclopropylmethyl)-5-oxo-1H-1,2,4-triazol-4(5H)-yl)-4-methyl-N-(pyridin-2-ylmethyl)thiazole-5-carboxamide]
34 | 156 to 158 | Cc1nc(N2CCN(CC3CC3(F)F)C2=O)sc1C(=O)NCc1ncco1 (stereo not drawn) [Example 16.1, 2-(3-((2,2-difluorocyclopropyl)methyl)-2-oxoimidazolidin-1-yl)-4-methyl-N-(oxazol-2-ylmethyl)thiazole-5-carboxamide]
35 | 182 to 184 | Cc1nc(N2CCN(CC3CC3(F)F)C2=O)sc1C(=O)NCc1cncs1 (stereo not drawn) [Example 16.2, 2-(3-((2,2-difluorocyclopropyl)methyl)-2-oxoimidazolidin-1-yl)-4-methyl-N-(thiazol-5-ylmethyl)thiazole-5-carboxamide]
36 | 157 to 159 | Cc1csc(CNC(=O)c2sc(N3CCN(CC4CC4(F)F)C3=O)nc2C)n1 (stereo not drawn) [Example 16.3, 2-(3-((2,2-difluorocyclopropyl)methyl)-2-oxoimidazolidin-1-yl)-4-methyl-N-((4-methylthiazol-2-yl)methyl)thiazole-5-carboxamide]

Source: US8318949B2, “Organic compounds” (Novartis AG, priority 2008, dated 2012)
